The supplement of paper PMC4862054

tested on: CAL-51; assay: normalised response (% of control), CellTiter-Glo; higher = more viable cells (100 = DMSO, 0 = benzethonium chloride kill control); settings: incubation time: 72 h
Procedure: (§1)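 DSRT, 72 h incubation, CellTox Green / CellTiter-Glo readout. Signal is normalised to DMSO and benzethonium chloride controls. Value is the normalised response at the highest dose.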

`CC(=O)c1c(C)c2cnc(Nc3ccc(N4CCNCC4)cn3)nc2n(C2CCCC2)c1=O` [Palbociclib] (10000 nM) showed a normalised response of 55%.

tested on: MDA-MB-436; assay: as above; settings: incubation time: 72 h
Procedure: as §1

In order of falling normalised response:
1. CC1(C)CCC(CN2CCN(c3ccc(C(=O)NS(=O)(=O)c4ccc(NCC5CCOCC5)c([N+](=O)[O-])c4)c(Oc4cnc5[nH]ccc5c4)c3)CC2)=C(c2ccc(Cl)cc2)C1 [ABT-199] (10000 nM)  102%
2. C[C@]12CC[C@@H]3c4ccc(OC(=O)N(CCCl)CCCl)cc4CC[C@H]3[C@@H]1CC[C@@H]2O [Estramustine] (10000 nM)  91.7%
3. C[C@]1(O)C[C@@H](c2nc(-c3ccc4ccc(-c5ccccc5)nc4c3)c3c(N)nccn32)C1 [Linsitinib] (10000 nM)  85.5%
4. CC(=O)c1c(C)c2cnc(Nc3ccc(N4CCNCC4)cn3)nc2n(C2CCCC2)c1=O [Palbociclib] (10000 nM)  74.4%
5. CC(=O)N(O)CCCCCNC(=O)CCC(=O)N(O)CCCCCNC(=O)CCC(=O)N(O)CCCCCN [Deferoxamine] (10000 nM)  48.8%
6. Cc1ccc([N+](=O)[O-])cc1S(=O)(=O)N(C)/N=C/c1cnc2ccc(Br)cn12 [PIK-75] (10000 nM)  15%

tested on: CAL-148; assay: as above; settings: incubation time: 72 h
Procedure: as §1

In order of falling normalised response:
1. CC1(C)CCC(CN2CCN(c3ccc(C(=O)NS(=O)(=O)c4ccc(NCC5CCOCC5)c([N+](=O)[O-])c4)c(Oc4cnc5[nH]ccc5c4)c3)CC2)=C(c2ccc(Cl)cc2)C1 [ABT-199] (10000 nM)  105%
2. C[C@]1(O)C[C@@H](c2nc(-c3ccc4ccc(-c5ccccc5)nc4c3)c3c(N)nccn32)C1 [Linsitinib] (10000 nM)  88.2%
3. CC(=O)c1c(C)c2cnc(Nc3ccc(N4CCNCC4)cn3)nc2n(C2CCCC2)c1=O [Palbociclib] (10000 nM)  80.4%
4. C[C@]12CC[C@@H]3c4ccc(OC(=O)N(CCCl)CCCl)cc4CC[C@H]3[C@@H]1CC[C@@H]2O [Estramustine] (10000 nM)  78.5%
5. Cc1ccc([N+](=O)[O-])cc1S(=O)(=O)N(C)/N=C/c1cnc2ccc(Br)cn12 [PIK-75] (10000 nM)  37.5%
6. CC(=O)N(O)CCCCCNC(=O)CCC(=O)N(O)CCCCCNC(=O)CCC(=O)N(O)CCCCCN [Deferoxamine] (10000 nM)  26.6%

tested on: SK-BR-3; assay: as above; settings: incubation time: 72 h
Procedure: as §1

In order of rising normalised response:
1. Cc1ccc([N+](=O)[O-])cc1S(=O)(=O)N(C)/N=C/c1cnc2ccc(Br)cn12 [PIK-75] (10000 nM)  0.21%
2. CC(=O)N(O)CCCCCNC(=O)CCC(=O)N(O)CCCCCNC(=O)CCC(=O)N(O)CCCCCN [Deferoxamine] (10000 nM)  40.5%
3. C[C@]1(O)C[C@@H](c2nc(-c3ccc4ccc(-c5ccccc5)nc4c3)c3c(N)nccn32)C1 [Linsitinib] (10000 nM)  49.9%
4. CC(=O)c1c(C)c2cnc(Nc3ccc(N4CCNCC4)cn3)nc2n(C2CCCC2)c1=O [Palbociclib] (10000 nM)  52.9%
5. C[C@]12CC[C@@H]3c4ccc(OC(=O)N(CCCl)CCCl)cc4CC[C@H]3[C@@H]1CC[C@@H]2O [Estramustine] (10000 nM)  87.4%
6. CC1(C)CCC(CN2CCN(c3ccc(C(=O)NS(=O)(=O)c4ccc(NCC5CCOCC5)c([N+](=O)[O-])c4)c(Oc4cnc5[nH]ccc5c4)c3)CC2)=C(c2ccc(Cl)cc2)C1 [ABT-199] (10000 nM)  90%

tested on: CAL-120; assay: as above; settings: incubation time: 72 h
Procedure: as §1

In order of rising normalised response:
1. Cc1ccc([N+](=O)[O-])cc1S(=O)(=O)N(C)/N=C/c1cnc2ccc(Br)cn12 [PIK-75] (10000 nM)  26.6%
2. C[C@]1(O)C[C@@H](c2nc(-c3ccc4ccc(-c5ccccc5)nc4c3)c3c(N)nccn32)C1 [Linsitinib] (10000 nM)  73.6%
3. CC(=O)c1c(C)c2cnc(Nc3ccc(N4CCNCC4)cn3)nc2n(C2CCCC2)c1=O [Palbociclib] (10000 nM)  77.7%
4. CC(=O)N(O)CCCCCNC(=O)CCC(=O)N(O)CCCCCNC(=O)CCC(=O)N(O)CCCCCN [Deferoxamine] (10000 nM)  87.2%
5. CC1(C)CCC(CN2CCN(c3ccc(C(=O)NS(=O)(=O)c4ccc(NCC5CCOCC5)c([N+](=O)[O-])c4)c(Oc4cnc5[nH]ccc5c4)c3)CC2)=C(c2ccc(Cl)cc2)C1 [ABT-199] (10000 nM)  98.5%
6. C[C@]12CC[C@@H]3c4ccc(OC(=O)N(CCCl)CCCl)cc4CC[C@H]3[C@@H]1CC[C@@H]2O [Estramustine] (10000 nM)  103%

tested on: HCC1937; assay: as above; settings: incubation time: 72 h
Procedure: as §1

In order of falling normalised response:
1. CC(=O)c1c(C)c2cnc(Nc3ccc(N4CCNCC4)cn3)nc2n(C2CCCC2)c1=O [Palbociclib] (10000 nM)  93.2%
2. C[C@]12CC[C@@H]3c4ccc(OC(=O)N(CCCl)CCCl)cc4CC[C@H]3[C@@H]1CC[C@@H]2O [Estramustine] (10000 nM)  91.7%
3. C[C@]1(O)C[C@@H](c2nc(-c3ccc4ccc(-c5ccccc5)nc4c3)c3c(N)nccn32)C1 [Linsitinib] (10000 nM)  88.7%
4. CC1(C)CCC(CN2CCN(c3ccc(C(=O)NS(=O)(=O)c4ccc(NCC5CCOCC5)c([N+](=O)[O-])c4)c(Oc4cnc5[nH]ccc5c4)c3)CC2)=C(c2ccc(Cl)cc2)C1 [ABT-199] (10000 nM)  73.2%
5. CC(=O)N(O)CCCCCNC(=O)CCC(=O)N(O)CCCCCNC(=O)CCC(=O)N(O)CCCCCN [Deferoxamine] (10000 nM)  64.1%
6. Cc1ccc([N+](=O)[O-])cc1S(=O)(=O)N(C)/N=C/c1cnc2ccc(Br)cn12 [PIK-75] (10000 nM)  6.99%

tested on: HCC1599; assay: as above; settings: incubation time: 72 h
Procedure: as §1

In order of falling normalised response:
1. C[C@]12CC[C@@H]3c4ccc(OC(=O)N(CCCl)CCCl)cc4CC[C@H]3[C@@H]1CC[C@@H]2O [Estramustine] (10000 nM)  95.5%
2. CC(=O)c1c(C)c2cnc(Nc3ccc(N4CCNCC4)cn3)nc2n(C2CCCC2)c1=O [Palbociclib] (10000 nM)  86.5%
3. CC1(C)CCC(CN2CCN(c3ccc(C(=O)NS(=O)(=O)c4ccc(NCC5CCOCC5)c([N+](=O)[O-])c4)c(Oc4cnc5[nH]ccc5c4)c3)CC2)=C(c2ccc(Cl)cc2)C1 [ABT-199] (10000 nM)  66.4%
4. C[C@]1(O)C[C@@H](c2nc(-c3ccc4ccc(-c5ccccc5)nc4c3)c3c(N)nccn32)C1 [Linsitinib] (10000 nM)  50.9%
5. CC(=O)N(O)CCCCCNC(=O)CCC(=O)N(O)CCCCCNC(=O)CCC(=O)N(O)CCCCCN [Deferoxamine] (10000 nM)  45.9%
6. Cc1ccc([N+](=O)[O-])cc1S(=O)(=O)N(C)/N=C/c1cnc2ccc(Br)cn12 [PIK-75] (10000 nM)  8.43%

tested on: HCC1143; assay: as above; settings: incubation time: 72 h
Procedure: as §1

In order of falling normalised response:
1. C[C@]12CC[C@@H]3c4ccc(OC(=O)N(CCCl)CCCl)cc4CC[C@H]3[C@@H]1CC[C@@H]2O [Estramustine] (10000 nM)  97.5%
2. CC1(C)CCC(CN2CCN(c3ccc(C(=O)NS(=O)(=O)c4ccc(NCC5CCOCC5)c([N+](=O)[O-])c4)c(Oc4cnc5[nH]ccc5c4)c3)CC2)=C(c2ccc(Cl)cc2)C1 [ABT-199] (10000 nM)  93.7%
3. CC(=O)c1c(C)c2cnc(Nc3ccc(N4CCNCC4)cn3)nc2n(C2CCCC2)c1=O [Palbociclib] (10000 nM)  76.5%
4. C[C@]1(O)C[C@@H](c2nc(-c3ccc4ccc(-c5ccccc5)nc4c3)c3c(N)nccn32)C1 [Linsitinib] (10000 nM)  68.5%
5. CC(=O)N(O)CCCCCNC(=O)CCC(=O)N(O)CCCCCNC(=O)CCC(=O)N(O)CCCCCN [Deferoxamine] (10000 nM)  65%
6. Cc1ccc([N+](=O)[O-])cc1S(=O)(=O)N(C)/N=C/c1cnc2ccc(Br)cn12 [PIK-75] (10000 nM)  12.6%

tested on: MDA-MB-453; assay: as above; settings: incubation time: 72 h
Procedure: as §1

In order of rising normalised response:
1. Cc1ccc([N+](=O)[O-])cc1S(=O)(=O)N(C)/N=C/c1cnc2ccc(Br)cn12 [PIK-75] (10000 nM)  0.48%
2. C[C@]1(O)C[C@@H](c2nc(-c3ccc4ccc(-c5ccccc5)nc4c3)c3c(N)nccn32)C1 [Linsitinib] (10000 nM)  80%
3. CC(=O)N(O)CCCCCNC(=O)CCC(=O)N(O)CCCCCNC(=O)CCC(=O)N(O)CCCCCN [Deferoxamine] (10000 nM)  89.6%
4. C[C@]12CC[C@@H]3c4ccc(OC(=O)N(CCCl)CCCl)cc4CC[C@H]3[C@@H]1CC[C@@H]2O [Estramustine] (10000 nM)  92.4%
5. CC(=O)c1c(C)c2cnc(Nc3ccc(N4CCNCC4)cn3)nc2n(C2CCCC2)c1=O [Palbociclib] (10000 nM)  92.7%
6. CC1(C)CCC(CN2CCN(c3ccc(C(=O)NS(=O)(=O)c4ccc(NCC5CCOCC5)c([N+](=O)[O-])c4)c(Oc4cnc5[nH]ccc5c4)c3)CC2)=C(c2ccc(Cl)cc2)C1 [ABT-199] (10000 nM)  92.9%

tested on: MCF-10A; assay: as above; settings: incubation time: 72 h
Procedure: as §1

In order of rising normalised response:
1. Cc1ccc([N+](=O)[O-])cc1S(=O)(=O)N(C)/N=C/c1cnc2ccc(Br)cn12 [PIK-75] (10000 nM)  -0.11%
2. C[C@]1(O)C[C@@H](c2nc(-c3ccc4ccc(-c5ccccc5)nc4c3)c3c(N)nccn32)C1 [Linsitinib] (10000 nM)  26.1%
3. CC(=O)N(O)CCCCCNC(=O)CCC(=O)N(O)CCCCCNC(=O)CCC(=O)N(O)CCCCCN [Deferoxamine] (10000 nM)  57.5%
4. CC(=O)c1c(C)c2cnc(Nc3ccc(N4CCNCC4)cn3)nc2n(C2CCCC2)c1=O [Palbociclib] (10000 nM)  65.8%
5. C[C@]12CC[C@@H]3c4ccc(OC(=O)N(CCCl)CCCl)cc4CC[C@H]3[C@@H]1CC[C@@H]2O [Estramustine] (10000 nM)  88%
6. CC1(C)CCC(CN2CCN(c3ccc(C(=O)NS(=O)(=O)c4ccc(NCC5CCOCC5)c([N+](=O)[O-])c4)c(Oc4cnc5[nH]ccc5c4)c3)CC2)=C(c2ccc(Cl)cc2)C1 [ABT-199] (10000 nM)  116%
